These results are taken from publication PMC10466331, “Fluorescence polarisation activity-based protein profiling for the identification of deoxynojirimycin-type inhibitors selective for lysosomal retaining alpha- and beta-glucosidases” (Chemical Science, 2023).

What all share (format): biochemical
For test [1], the target named is T1, recombinant human GAA (rhGAA, Myozyme) (Homo sapiens, UniProt P10253).
T1 construct: purchased Genzyme
The test is described as follows: competitive FluoPol-ABPP assay on rhGAA with TAMRA-ABP II.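 Further: fluorescence polarization read at 540 nm excitation and 590 nm emission, background-corrected, normalized to uninhibited probe labelling as 100% and excess cyclosulfate as 0%.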 The following applies: library screen, 5 μM inhibitor, 25 nM ABP II.

The target of test [2] is T2, ER α-glucosidase GANAB (from Pompe disease Fibroblast lysates) (Homo sapiens, UniProt Q14697).
T2 construct: Cellular homogenates of Pompe fibroblasts (1 mg mL^−1) were used as protein source for GANAB; endogenous in cells; host or cells: Pompe disease fibroblasts (homogenate)
T2 sequence (Q14697 29-944): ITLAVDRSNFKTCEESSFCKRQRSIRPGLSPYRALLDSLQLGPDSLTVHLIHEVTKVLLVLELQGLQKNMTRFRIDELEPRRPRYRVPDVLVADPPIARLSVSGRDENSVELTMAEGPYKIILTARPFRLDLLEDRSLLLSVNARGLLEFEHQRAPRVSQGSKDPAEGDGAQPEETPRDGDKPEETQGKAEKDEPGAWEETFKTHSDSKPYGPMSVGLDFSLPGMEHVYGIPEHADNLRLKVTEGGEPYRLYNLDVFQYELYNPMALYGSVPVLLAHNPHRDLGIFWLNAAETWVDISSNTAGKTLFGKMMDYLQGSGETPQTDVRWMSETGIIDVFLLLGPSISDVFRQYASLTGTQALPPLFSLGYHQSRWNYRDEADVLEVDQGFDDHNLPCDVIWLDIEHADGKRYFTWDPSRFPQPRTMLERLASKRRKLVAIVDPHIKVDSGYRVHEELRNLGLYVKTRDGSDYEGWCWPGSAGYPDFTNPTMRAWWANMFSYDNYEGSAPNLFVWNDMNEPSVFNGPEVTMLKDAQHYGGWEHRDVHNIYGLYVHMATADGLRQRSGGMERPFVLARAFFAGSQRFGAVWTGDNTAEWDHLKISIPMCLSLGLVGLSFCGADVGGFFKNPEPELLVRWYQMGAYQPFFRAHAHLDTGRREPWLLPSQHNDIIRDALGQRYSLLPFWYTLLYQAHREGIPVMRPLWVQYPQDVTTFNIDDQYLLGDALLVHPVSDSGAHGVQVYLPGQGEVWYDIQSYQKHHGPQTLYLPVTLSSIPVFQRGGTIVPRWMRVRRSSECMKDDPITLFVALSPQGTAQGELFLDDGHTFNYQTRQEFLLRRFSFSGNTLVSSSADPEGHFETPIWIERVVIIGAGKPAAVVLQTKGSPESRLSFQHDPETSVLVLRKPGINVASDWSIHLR
T2 sequence (P14314 15-528 partner): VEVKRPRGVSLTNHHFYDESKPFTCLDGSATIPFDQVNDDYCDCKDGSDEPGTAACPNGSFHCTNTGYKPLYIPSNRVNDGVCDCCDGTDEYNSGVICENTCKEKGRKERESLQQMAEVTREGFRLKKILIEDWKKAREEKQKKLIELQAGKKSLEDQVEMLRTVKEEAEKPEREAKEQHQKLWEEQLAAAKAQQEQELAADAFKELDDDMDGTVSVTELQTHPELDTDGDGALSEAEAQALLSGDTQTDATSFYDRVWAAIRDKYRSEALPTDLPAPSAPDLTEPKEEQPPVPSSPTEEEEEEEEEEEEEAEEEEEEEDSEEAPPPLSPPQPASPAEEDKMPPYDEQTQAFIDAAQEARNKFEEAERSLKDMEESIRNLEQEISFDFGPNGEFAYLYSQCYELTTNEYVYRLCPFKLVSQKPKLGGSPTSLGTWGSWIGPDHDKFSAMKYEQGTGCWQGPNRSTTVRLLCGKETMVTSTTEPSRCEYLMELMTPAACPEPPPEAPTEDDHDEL
The test can be described thus: fluorogenic substrate (4MU-α-D-glucopyranoside) assay on GANAB in Pompe fibroblast homogenates.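 Further: inhibitor preincubated 30 min at 37 °C with homogenate, then GANAB activity read after 2 h with 3.0 mM fluorogenic substrate in McIlvaine buffer containing 0.1% BSA.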 The following applies: Table S2, 4-MU alpha glucoside substrate, read-out: IC50 on GANAB.

Test [3] deals with T3, human recombinant lysosomal α-glucosidase GAA (Myozyme) (Homo sapiens, UniProt P10253).
T3 construct: purchased Genzyme
The test is described as follows: fluorogenic substrate (4MU-α-D-glucopyranoside) assay on rhGAA. The settings on record: Table S2, 4-MU alpha glucoside substrate, read-out: IC50 on rhGAA.

Read-outs that look alike come from different tables or passages of the source.

With `OC[C@@H]1[C@@H](O)[C@H](O)[C@@H](O)CN1CCCCCOCc1ccc(-c2ccccc2)cc1C(F)(F)F` [#ID 118], in test [1], the “GAA FP% (residual FP-signal)” value is 2.9%. Besides, the 50% inhibitory concentration (IC50) was determined as 0.48 µM in test [2] and 0.018 µM in test [3].
Turning to `OC[C@@H]1[C@@H](O)[C@H](O)[C@@H](O)CN1CCCCCOCc1ccc(-c2ccccc2)c(C(F)(F)F)c1` [#ID 120], the “GAA FP% (residual FP-signal)” value in test [1] worked out at 2.4%. Further, the IC50 in test [2] amounted to 0.72 µM; in test [3], 0.016 µM.
As to `OC[C@@H]1[C@@H](O)[C@H](O)[C@@H](O)CN1CCCCCOCC1CCCCC1` [#ID 127], the “GAA FP% (residual FP-signal)” value in test [1] was 9.3%. Further, the values for the IC50 in test [2] and in test [3] were 1.84 µM and 0.29 µM, respectively.
As for `OC[C@@H]1[C@@H](O)[C@H](O)[C@@H](O)CN1CCCCCOCc1ccccc1` [#ID 139], in test [1], the “GAA FP% (residual FP-signal)” value came out at 20%. The IC50 is 9.32 µM in test [2] and 0.76 µM in test [3].
For `OC[C@@H]1[C@@H](O)[C@H](O)[C@@H](O)CN1CCCCCCOCC12CC3CC(CC(C3)C1)C2` [#ID 141], in test [1], the “GAA FP% (residual FP-signal)” value turned out to be 1.8%. Further, the IC50 in test [2] amounted to 0.58 µM; in test [3] it was 0.29 µM.
As for `CCCCN1C[C@H](O)[C@@H](O)[C@@H](O)[C@H]1CO` [#ID 153], the “GAA FP% (residual FP-signal)” value in test [1] is recorded as 14%. For the same compound, the results for the IC50 in test [2] and in test [3] were 19 µM and 3.6 µM, respectively.
In the case of `OC[C@@H]1[C@@H](O)[C@H](O)[C@@H](O)CN1CCCCCOCCC12CC3CC(CC(C3)C1)C2` [#ID 170], the “GAA FP% (residual FP-signal)” value in test [1] is 4.1%. Further, the figures for the IC50 in test [2] and in test [3] were 1.6 µM and 0.43 µM, respectively.
For `OC[C@@H]1[C@@H](O)[C@H](O)[C@@H](O)CN1CCCCCOCC(COCCCCCN1C[C@H](O)[C@@H](O)[C@H](O)[C@H]1CO)C12CC3CC(CC(C3)C1)C2` [#ID 197] the same measures were 0.4%, 1.3 µM and 0.22 µM.
Take `OC[C@@H]1[C@@H](O)[C@H](O)[C@@H](O)CN1CCCCOCCC12CC3CC(CC(C3)C1)C2` [#ID 203]: the “GAA FP% (residual FP-signal)” value in test [1] amounted to 9.2%. For the same compound, the IC50 was found to be 2.1 µM in test [2] and 0.042 µM in test [3].
Consider `CCCCCCCOCCCCCN1C[C@H](O)[C@@H](O)[C@H](O)[C@H]1CO` [#ID 276], for which, in test [1] (listed as 276), the “GAA FP% (residual FP-signal)” value is 0.6%. For the same compound, the IC50 amounted to 1.81 µM in test [2] (listed as 276) and 0.072 µM in test [3] (listed as 276).
In the case of `CCCCCOCCCCCN1C[C@H](O)[C@@H](O)[C@H](O)[C@H]1CO` [#ID 281], the “GAA FP% (residual FP-signal)” value in test [1] (listed as 281) turned out to be 4.2%. Further, the values for the half-maximal inhibitory concentration (IC50) in test [2] (listed as 281) and in test [3] (listed as 281) were 3.7 µM and 0.54 µM, respectively.
For the compound `CCCCOCCCCCN1C[C@H](O)[C@@H](O)[C@H](O)[C@H]1CO` [#ID 283], in test [1] (listed as 283), the “GAA FP% (residual FP-signal)” value is 4.4%. Besides, the IC50 in test [2] (listed as 283) was found to be 4.9 µM; in test [3] (listed as 283) it was 0.72 µM.
For the compound `CCCCCCCCN1C[C@H](O)[C@@H](O)[C@H](O)[C@H]1CO` [#ID 286], the “GAA FP% (residual FP-signal)” value in test [1] (listed as 286) was 9.1%. Besides, the IC50 came to 8.5 µM in test [2] (listed as 286) and 0.76 µM in test [3] (listed as 286).
For the compound `CCCCCCN1C[C@H](O)[C@@H](O)[C@H](O)[C@H]1CO` [#ID 293], the “GAA FP% (residual FP-signal)” value in test [1] (listed as 293) was determined as 17%. The IC50 stood at 14 µM in test [2] (listed as 293) and 1.3 µM in test [3] (listed as 293).
Regarding `Cc1ccc(-c2ccc(COCCCCCN3C[C@H](O)[C@@H](O)[C@H](O)[C@H]3CO)cc2)cc1` [#ID 301], the “GAA FP% (residual FP-signal)” value in test [1] was 0.5%. Moreover, the figures for the IC50 in test [2] and in test [3] were 1.6 µM and 0.037 µM, respectively.
`Cc1cccc(-c2ccc(COCCCCCN3C[C@H](O)[C@@H](O)[C@H](O)[C@H]3CO)cc2)c1` [#ID 302]: the “GAA FP% (residual FP-signal)” value in test [1] is on record as 0.1%. The concentration for half-maximal inhibition (IC50) in test [2] was 1.6 µM; in test [3] it was 0.02 µM.
Consider `OC[C@@H]1[C@@H](O)[C@H](O)[C@@H](O)CN1CCCCCOCc1ccc(-c2ccc3c(c2)OCO3)cc1` [#ID 303], for which the “GAA FP% (residual FP-signal)” value in test [1] turned out to be 0.1%. The results for the IC50 in test [2] and in test [3] were 4.7 µM and 0.14 µM, respectively.
As to `OC[C@@H]1[C@@H](O)[C@H](O)[C@@H](O)CN1CCCCCOCc1ccc(-c2ccc3c(c2)OCCCO3)cc1` [#ID 304], in test [1], the “GAA FP% (residual FP-signal)” value is 0.6%. The IC50 in test [2] was determined as 1.2 µM; in test [3], 0.037 µM.
Consider `COc1ccc(-c2ccc(COCCCCCN3C[C@H](O)[C@@H](O)[C@H](O)[C@H]3CO)cc2)cc1` [#ID 305], for which the “GAA FP% (residual FP-signal)” value in test [1] is given as 0.3%. Also, the IC50 in test [2] came to 0.38 µM; in test [3], 0.02 µM.
As for `COc1cccc(-c2ccc(COCCCCCN3C[C@H](O)[C@@H](O)[C@H](O)[C@H]3CO)cc2)c1` [#ID 306], in test [1], the “GAA FP% (residual FP-signal)” value is listed as 0.8%. The IC50 in test [2] came out at 0.39 µM; in test [3], 0.015 µM.
For `OC[C@@H]1[C@@H](O)[C@H](O)[C@@H](O)CN1CCCCCOCc1ccc(-c2ccc(C(F)(F)F)cc2)cc1` [#ID 307] the same measures were 2.5%, 1.7 µM and 0.036 µM.
With `OC[C@@H]1[C@@H](O)[C@H](O)[C@@H](O)CN1CCCCCOCc1ccc(-c2cc(C(F)(F)F)cc(C(F)(F)F)c2)cc1` [#ID 308], in test [1], the “GAA FP% (residual FP-signal)” value was determined as 1.5%. The values for the IC50 in test [2] and in test [3] were 14 µM and 2.4 µM, respectively.
For `N#Cc1ccc(-c2ccc(COCCCCCN3C[C@H](O)[C@@H](O)[C@H](O)[C@H]3CO)cc2)cc1` [#ID 309], in that order: 0.1%, 0.42 µM and 0.037 µM.
In the case of `N#Cc1cccc(-c2ccc(COCCCCCN3C[C@H](O)[C@@H](O)[C@H](O)[C@H]3CO)cc2)c1` [#ID 310], the “GAA FP% (residual FP-signal)” value in test [1] was found to be 2.5%. For the same compound, the figures for the IC50 in test [2] and in test [3] were 1 µM and 0.054 µM, respectively.
For `OC[C@@H]1[C@@H](O)[C@H](O)[C@@H](O)CN1CCCCCOCc1ccc(-c2ccc(F)cc2)cc1` [#ID 311], in that order: 0.9%, 1.4 µM and 0.043 µM.
For `OC[C@@H]1[C@@H](O)[C@H](O)[C@@H](O)CN1CCCCCOCc1ccc(-c2cccc(F)c2)cc1` [#ID 312], in that order: 0.9%, 1 µM and 0.024 µM.
`OC[C@@H]1[C@@H](O)[C@H](O)[C@@H](O)CN1CCCCCOCc1ccc(-c2ccc(Cl)cc2)cc1` [#ID 314]: in test [1], the “GAA FP% (residual FP-signal)” value was 1.7%. Besides, the half-maximal inhibitory concentration (IC50) in test [2] was determined as 0.15 µM; in test [3] it was 0.093 µM.
For `OC[C@@H]1[C@@H](O)[C@H](O)[C@@H](O)CN1CCCCCOCc1ccc(-c2ccncc2)cc1` [#ID 316], the “GAA FP% (residual FP-signal)” value in test [1] is listed as 1.1%. For the same compound, the figures for the 50% inhibitory concentration (IC50) in test [2] and in test [3] were 1.3 µM and 0.089 µM, respectively.
